Test results from US20230074545A1, “TREATMENT OF CANCER WITH CDK12/13 INHIBITORS” (Kinnate Biopharma Inc., priority 2019, published 2023).

Assays:
HCC70 tumors = assay: HCC70 mouse xenograft model of triple-negative breast cancer; type: in vivo, CB-17 SCID female mice; details: compared to vehicle control
From the text: To test the efficacy of the compounds in vivo, studies were done in mouse xenografts. For all studies, general procedures for animal care and housing were done in accordance with the standard, Commission on Life Sciences, National Research Council, Standard operating procedures (SOPs) of Pharmaron, Inc (Beijing, China). The mice were kept in laminar flow rooms at constant temperature and humidity with 3-5 mice in each cage with bedding changed once weekly. Animals were housed in polycarbonate cage which is in the size of 300×180×150 mm^3 and in an environmentally monitored, well-ventilated room maintained at a temperature of (22±3° C.) and a relative humidity of 40%-70% on a 12 hour:12 hour light:dark cycle with full spectrum lighting. […]
Each mouse was inoculated subcutaneously on the right flank with HCC70 tumor cells (5×10^6) in 0.1 ml of RPMI-1640 Medium and Matrigel mixture (1:1 ratio) for tumor development. […] All study animals were monitored not only tumor growth but also behavior such as mobility, food and water consumption (by cage side checking only), body weight (BW), eye/hair matting and any other abnormal effect. Any mortality and/or abnormal clinical signs were recorded.
The measurement of tumor size was conducted twice weekly with a caliper and recorded. […]
Protocol-required measurements and observations were recorded manually onto excel spread sheets. […]

OVCAR-3 tumors = assay: OVCAR-3 mouse xenograft model of ovarian cancer; type: in vivo, NOD SCID female mice
From the text: To test the efficacy of the compounds in vivo, studies were done in mouse xenografts. For all studies, general procedures for animal care and housing were done in accordance with the standard, Commission on Life Sciences, National Research Council, Standard operating procedures (SOPs) of Pharmaron, Inc (Beijing, China). The mice were kept in laminar flow rooms at constant temperature and humidity with 3-5 mice in each cage with bedding changed once weekly. Animals were housed in polycarbonate cage which is in the size of 300×180×150 mm^3 and in an environmentally monitored, well-ventilated room maintained at a temperature of (22±3° C.) and a relative humidity of 40%-70% on a 12:12 light:dark cycle with full spectrum lighting. Each animal was assigned an identification number; the following identification method will be applied. Cage cards were labeled with such information as study number, group, sex, dose, animal number, initiation date, study director and telephone number. Animals were identified by ear coding. Animals had free access to irradiation sterilized dry granule food during the entire study period except for time periods specified by the protocol.
For the OVCAR-3 study, NOD SCID female mice bearing the OVCAR-3 tumors were randomized into 5 groups (n=9 mice per group) 17 day post tumor implantation with an average tumor volume of 150 mm^3. Each group received either vehicle (3% DMSO, 97.0% (20% HP-β-CD in water) or 5.0, 10, 20 and 25.0 mg/kg of compound 4 biweekly (Monday, Thursday), a total of 4 doses were intravenously administered through the course of 14 day efficacy study. Immediately after every treatment dose, a saline flush of 0.1 mL were also administered. One last dose was intravenously administered on Day 15 for end of study PK plasma and PD tumor collections as indicated in the protocol. Tumor volumes were measured by caliper 2 times a week and body weights of all animals were recorded throughout the study.
Protocol-required measurements and observations were recorded manually onto excel spread sheets. All statistical tests were conducted, and the level of significance was set at 5% or P<0.05. The group means, standard deviation was calculated for all measurement parameters as study designed. Two-way RM ANOVA followed by Tukeys post hoc comparisons of the means was utilized for this study.

[1] = 20 mg/kg intravenously biweekly for 14 days
[2] = 25 mg/kg intravenously biweekly for 14 days

SMILES: C=CC(=O)Nc1ccc(C(=O)N2CC[C@@H](Nc3ncc(C#N)cn3)C2)cc1 [Compound 4, (R)-N-(4-(3-((5-cyanopyrimidin-2-yl)amino)pyrrolidine-1-carbonyl)phenyl)acrylamide]
- T/C (HCC70 tumors; [1]): −37%
- T/C (HCC70 tumors; [2]): −39%
- T/C (OVCAR-3 tumors; 5.0 mg/kg intravenously biweekly for 14 days, compared to vehicle control): 36%
- T/C (OVCAR-3 tumors; 10 mg/kg intravenously biweekly for 14 days, compared to vehicle control): 13%
- T/C (OVCAR-3 tumors; [1]): −7%
- T/C (OVCAR-3 tumors; [2]): −9%
